What was measured:
peppers cv. Pathos = assay: Biostimulating effect on transplanted pepper seedlings in tunnel, production yield; assay type: in vivo; conditions: 10 g/hl; for Berries kg per lot: repeated every 10 days, harvest July 29-August 29; for Increase (%) of berries kg per lot: versus not treated Thesis E
Description: The whole mixture was brought to a volume of 1 liter by the addition of water, in order to obtain solutions of each compound with a concentration of 50 g/liter. Determination of the amplification of the biostimulating effect obtained by applying compound (I) in the presence of a solution of proline. Seedlings of peppers cv. Pathos were transplanted in a tunnel (April 16, AT). The lots were distributed according to the random block scheme with 5 repetitions per thesis. Each repetition consisted of 15 plants. At the moment of transplanting, the seedlings have a common degree of vegetative development. […] Said treatment was subsequently repeated every 10 days, in a preventive manner, in order to oppose any possible thermal or water stress or stress due to vegetative development. Harvesting was effected from July 29 for the following 30 days, and a production increase was registered in theses B and D, with respect to theses A and C, as indicated in Table 2. The yields are obtained from the average production obtained during the above harvesting period (July 29-August 29).

courgettes cv. Diamone = assay: Biostimulating activity on transplanted courgette seedlings in field, fruit yield; assay type: in vivo; conditions: for Fruit per lot: treatment repeated every 10 days, harvest June 11-August 27, average per lot; for Increase (%) of fruit per lot: with respect to non-treated Thesis F
Description: The following examples are provided for merely illustrative purpose and in no way intend to limit the scope of the present invention.
When the biological activity experimentally found is higher than the value of E, said activity should be considered as a synergic effect.
An amount of 50 g of each compound under examination (thiazolidine-4-carboxylic acid (compound I) and N-acyl-thiazolidine-4-carboxylic acid (compound II)) were dispersed in water (800 cc) and vigorously stirred. An excess of 5%, with respect to the stoichiometric quantity, of sodium bicarbonate, was then added in portions. 150 g of a non-ionic surface-active agent were added to favour application to the leaves. The whole mixture was brought to a volume of 1 liter by the addition of water, in order to obtain solutions of each compound with a concentration of 50 g/liter.
Assessment of the biostimulating activity of compound (I), compound (II) and their synergic mixture.
Seedlings of courgettes cv. Diamone, sown and cultivated in a hot greenhouse, were transplanted in a field (May 11, Leggiuno, (Varese)—Italy).
The theses were randomly arranged in lots with four repetitions for each thesis. Each lot consisted of six plants in rows situated at a distance of 1 meter from each other, and at a distance of 1 meter from each other in the same row.
Weeding was performed before the transplant, using 1 kg/ha of trifluralin (volume 550 l/ha).
At the moment transplanting, the seedlings have a common degree of vegetative development.
In order to minimize transplant stress, the seedlings planted were treated respectively with: • Thesis A: with compound (I) (ATC) at a dose of 5 g/hl; • Thesis B: with compound (I) (ATC) at a dose of 10 g/hl; • Thesis C: with compound (II) (AATC) at a dose of 5 g/hl; • Thesis D: with compound (II) (AATC) at a dose of 10 g/hl; • Thesis E: with compound (I) (ATC) at a dose of 5 g/hl in a mixture with compound (II) (AATC) at a dose of 5 g/hl; • Thesis F: no biostimulating treatment.
Said treatment was subsequently repeated every 10 days, in a preventive manner, in order to oppose any possible thermal or water stress or stress due to vegetative development. Harvesting was effected from June 11 to August 27, and the yield increases indicated in Table 1, were registered in the treated theses (A, B, C, D, E), with respect to the non-treated Thesis F. The yields are obtained from the average amount of fruit obtained in each lot during the above-mentioned harvesting period (June 11-August 27).

Compound	Berries kg per lot (peppers cv. Pathos) [kg per lot]	Increase (%) of berries kg per lot (peppers cv. Pathos)	Fruit per lot (courgettes cv. Diamone; 5 g/hl)	Increase (%) of fruit per lot (courgettes cv. Diamone; 5 g/hl)	Fruit per lot (courgettes cv. Diamone; 10 g/hl)	Increase (%) of fruit per lot (courgettes cv. Diamone; 10 g/hl)
CC(=O)N1CSCC1C(=O)O (stereo not drawn) [AATC, N-acetylthiazolidine-4-carboxylic acid]	26.40	+6.9%	102	+5.2%	109	+12.4%
O=C(O)[C@@H]1CSCN1 [ATC, R-(−)-thiazolidine-4-carboxylic acid]	25.80	+4.5%	100	+3.1%	105	+8.2%

— patent US20050165070A1, “Compositions with a biostimulating activity” (priority 2002, published 2005)
